Measurements as given in ChEMBL document CHEMBL4390686, “Design, Synthesis, and Pharmacokinetic Evaluation of Phosphate and Amino Acid Ester Prodrugs for Improving the Oral Bioavailability of the HIV-1 Protease Inhibitor Atazanavir” (J Med Chem, 2019).
≈ marks a conversion by molar mass, not a printed value.

Tests used:
physchem [1] = conditions: 30% CH3CN/HCl buffer, pH 1
Description: Half life in pH 1 30%CH3CN/HCl buffer at 50 mM by RP-UPLC analysis

physchem [2] = conditions: 30% CH3CN/acetate buffer, pH 4
Description: Half life in pH 4 30%CH3CN/acetate buffer at 50 mM by RP-UPLC analysis

physchem [3] = conditions: HCl buffer, pH 1
Description: Aqueous solubility of the compound in pH 1 HCl buffer by RP-UPLC analysis

physchem [4] = conditions: acetate buffer, pH 4
Description: Aqueous solubility of the compound in pH 4 acetate buffer by RP-UPLC analysis

physchem [5] = conditions: 30% CH3CN/phosphate buffer, pH 7.4
Description: Half life in pH 7.4 30%CH3CN/phosphate buffer at 50 mM by RP-UPLC analysis

physchem [6] = conditions: phosphate buffer, pH 7.4
Description: Aqueous solubility of the compound in pH 7.4 phosphate buffer by RP-UPLC analysis

[7] = Ratio of test compound to atazanavir aqueous solubility in pH 6.5 phosphate buffer by RP-UPLC analysis; type: physicochemical
[8] = rat, in vivo, po, 3 mg/kg
[9] = rat, in vivo, po, 3 mg/kg; remark: listed apart in the source
[10] = rat, in vivo, po, 3 mg/kg; remark: listed apart in the source
Description: AUClast in cannulated Sprague-Dawley rat assessed as atazanavir level at 3 mg/kg equiv of atazanavir administered orally by UPLC/MS/MS analysis

physchem [11] = conditions: 30% CH3CN/phosphate buffer, pH 6.5
Description: Half life in pH 6.5 30%CH3CN/phosphate buffer at 50 mM by RP-UPLC analysis

physchem [12] = conditions: phosphate buffer, pH 6.5
Description: Aqueous solubility of the compound in pH 6.5 phosphate buffer by RP-UPLC analysis

Protease = Protease (Human immunodeficiency virus 1, UniProt Q9YQ12)
Sequence of Protease (Q9YQ12 whole entry): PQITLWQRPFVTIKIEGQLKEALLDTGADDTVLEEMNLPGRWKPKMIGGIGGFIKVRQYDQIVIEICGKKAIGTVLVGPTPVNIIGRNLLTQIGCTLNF
Description: Inhibition of HIV1 protease activity

[13] = tested on: Human immunodeficiency virus 1
Description: Antiviral activity against HIV1 NL4-3 infected in human MT2 cells assessed as reduction in viral yield measured after 4 days by EnduRen live cell substrate based luciferase reporter gene assay

in vitro [14] = conditions: human, Caco-2
Description: Apparent permeability across apical to basolateral side in human Caco2 cells at 2 uM

in vitro [15] = conditions: human, Caco-2; remark: listed apart in the source
Description: Apparent permeability across basolateral to apical side in human Caco2 cells at 2 uM

in vitro [16] = conditions: human, Caco-2; remark: listed apart in the source
Description: Efflux ratio of apparent permeability across basolateral to apical side over apical to basolateral side in human Caco2 cells

[17] = Prodrug conversion in cannulated Sprague-Dawley rat plasma assessed as atazanavir formation at 3 mg/kg equiv of atazanavir administered orally by UPLC/MS/MS analysis; type: ADME, organism-based; conditions: in vivo, po
[18] = Prodrug conversion assessed as calf intestinal alkaline phosphatase-mediated compound dephosphorylation by UPLC-MS/MS analysis; type: ADME, Bos taurus; conditions: cattle, isolated protein

half-life at 50000 µM (physchem [1]) [days] | half-life at 50000 µM (physchem [2]) [days] | solubility (physchem [3]) [µg/mL] | solubility (physchem [4]) [µg/mL] | half-life at 50000 µM (physchem [5]) [days] | solubility (physchem [6]) [µg/mL] | Ratio [7] | Cmax [8] [nM] | Tmax [9] [days] | AUClast [10] [µM·h] | half-life at 50000 µM (physchem [11]) [days] | solubility (physchem [12]) [µg/mL] | IC50 (Protease) [nM] | EC50 [13] [nM] | Papp A→B at 2 µM (in vitro [14]) [×10⁻⁶ cm/s] | Papp B→A at 2 µM (in vitro [15]) [×10⁻⁶ cm/s] | efflux ratio (in vitro [16]) | Drug metabolism [17] | Drug metabolism [18] | SMILES
> 20.8 | > 20.8 | > 2900 | > 3500 | – | – | > 200 | 9 | 0.017 | 0.016 | 3.06 | > 640 | – | – | – | – | – | – | – | COC(=O)N[C@H](C(=O)N[C@@H](Cc1ccccc1)[C@H](CN(Cc1ccc(-c2ccccn2)cc1)NC(=O)[C@@H](NC(=O)OC)C(C)(C)C)OC(=O)CNC(=O)[C@@H](N)Cc1ccccc1)C(C)(C)C
> 20.8 | > 20.8 | > 990 | > 710 | – | – | – | 55 | 0.025 | 0.1 | 13.9 | < 1 | – | – | < 1.5 | 9.6 | > 6.4 | – | – | COC(=O)N[C@H](C(=O)N[C@@H](Cc1ccccc1)[C@H](CN(Cc1ccc(-c2ccccn2)cc1)NC(=O)[C@@H](NC(=O)OC)C(C)(C)C)OC(=O)CNCc1ccccc1)C(C)(C)C
> 20.8 | > 20.8 | > 2100 | > 2300 | – | – | > 200 | 51 | 0.021 | 0.307 | 3.69 | 230 (≈ 253 µM) | – | – | – | – | – | – | – | COC(=O)N[C@H](C(=O)N[C@@H](Cc1ccccc1)[C@H](CN(Cc1ccc(-c2ccccn2)cc1)NC(=O)[C@@H](NC(=O)OC)C(C)(C)C)OC(=O)CNC(=O)[C@H](N)Cc1ccccc1)C(C)(C)C
> 20.8 | 15.7 | > 980 | > 1420 | 8.95 | 9 (≈ 10.4 µM) | – | 99 | 0.017 | 0.103 | – | – | – | – | < 1.5 | 7.1 | > 4.7 | – | – | COC(=O)N[C@H](C(=O)N[C@@H](Cc1ccccc1)[C@H](CN(Cc1ccc(-c2ccccn2)cc1)NC(=O)[C@@H](NC(=O)OC)C(C)(C)C)OC(=O)[C@@H](N)Cc1ccc(O)cc1)C(C)(C)C
> 20.8 | > 20.8 | > 1380 | > 980 | 13.9 | < 1 | – | 305 | 0.021 | 0.463 | – | – | – | – | < 1.5 | 8.2 | > 5.5 | – | – | COC(=O)N[C@H](C(=O)N[C@@H](Cc1ccccc1)[C@H](CN(Cc1ccc(-c2ccccn2)cc1)NC(=O)[C@@H](NC(=O)OC)C(C)(C)C)OC(=O)[C@@H](N)Cc1ccc(F)cc1)C(C)(C)C
15.7 | > 20.8 | > 1200 | > 2200 | – | – | – | 285 | 0.021 | 0.359 | > 13.9 | 20 (≈ 21 µM) | – | – | – | – | – | – | – | COC(=O)N[C@H](C(=O)N[C@@H](Cc1ccccc1)[C@H](CN(Cc1ccc(-c2ccccn2)cc1)NC(=O)[C@@H](NC(=O)OC)C(C)(C)C)OC(=O)CN(C)C(=O)[C@H](Cc1ccccc1)N(C)C)C(C)(C)C
> 20.8 | > 20.8 | > 1200 | > 1200 | – | – | – | 64 | 0.021 | 0.154 | > 20.8 | < 1 | 4 to 1140 | 0.9 to 1250 | – | – | – | – | – | COC(=O)N[C@H](C(=O)N[C@@H](Cc1ccccc1)[C@H](CN(Cc1ccc(-c2ccccn2)cc1)NC(=O)[C@@H](NC(=O)OC)C(C)(C)C)OC(=O)[C@H](N)Cc1ccccc1)C(C)(C)C
15.7 | 0.65 | > 2700 | – | – | – | – | 160 | 0.012 | 0.092 | 0.00333 | – | – | – | – | – | – | – | – | CN[C@@H](Cc1ccccc1)C(=O)N(C)CC(=O)O[C@@H](CN(Cc1ccc(-c2ccccn2)cc1)NC(=O)[C@@H](NC(=O)OC)C(C)(C)C)[C@H](Cc1ccccc1)NC(=O)[C@@H](NC(=O)OC)C(C)(C)C

Second part, the compound before the results:

SMILES | half-life at 50000 µM (physchem [1]) [days] | half-life at 50000 µM (physchem [2]) [days] | solubility (physchem [3]) [µg/mL] | solubility (physchem [4]) [µg/mL] | half-life at 50000 µM (physchem [5]) [days] | solubility (physchem [6]) [µg/mL] | Ratio [7] | Cmax [8] [nM] | Tmax [9] [days] | AUClast [10] [µM·h] | half-life at 50000 µM (physchem [11]) [days] | solubility (physchem [12]) [µg/mL] | IC50 (Protease) [nM] | EC50 [13] [nM] | Papp A→B at 2 µM (in vitro [14]) [×10⁻⁶ cm/s] | Papp B→A at 2 µM (in vitro [15]) [×10⁻⁶ cm/s] | efflux ratio (in vitro [16]) | Drug metabolism [17] | Drug metabolism [18]
COC(=O)N[C@H](C(=O)N[C@@H](Cc1ccccc1)[C@H](CN(Cc1ccc(-c2ccccn2)cc1)NC(=O)[C@@H](NC(=O)OC)C(C)(C)C)OC(=O)[C@H](N)CCSC)C(C)(C)C | > 20.8 | > 20.8 | > 990 | > 890 | 4.05 | 45 (≈ 53.8 µM) | – | – | – | – | – | – | – | – | – | – | – | – | –
COC(=O)N[C@H](C(=O)N[C@@H](Cc1ccccc1)[C@H](CN(Cc1ccc(-c2ccccn2)cc1)NC(=O)[C@@H](NC(=O)OC)C(C)(C)C)OC(=O)CN)C(C)(C)C | > 20.8 | > 20.8 | > 1200 | > 1600 | 1.63 | 960 (≈ 1260 µM) | – | 162 | 0.38 | 0.224 | – | – | 4 to 1140 | 0.9 to 1250 | – | – | – | – | –
COC(=O)N[C@H](C(=O)N[C@@H](Cc1ccccc1)[C@H](CN(Cc1ccc(-c2ccccn2)cc1)NC(=O)[C@@H](NC(=O)OC)C(C)(C)C)OC(=O)[C@@H](NC(=O)[C@H](N)C(C)C)C(C)C)C(C)(C)C | > 20.8 | > 20.8 | > 2000 | > 2000 | – | – | – | – | – | – | > 20.8 | 620 (≈ 686 µM) | 4 to 1140 | 0.9 to 1250 | – | – | – | – | –
COC(=O)N[C@H](C(=O)N[C@@H](Cc1ccccc1)[C@H](CN(Cc1ccc(-c2ccccn2)cc1)NC(=O)[C@@H](NC(=O)OC)C(C)(C)C)OC(=O)CN(C)C)C(C)(C)C | > 20.8 | > 20.8 | > 1400 | > 1700 | 7.83 | 360 (≈ 456 µM) | – | 66.8 | 0.012 | 0.0457 | – | – | 4 to 1140 | 0.9 to 1250 | < 1.5 | 13.2 | > 8.8 | – | –
COC(=O)N[C@H](C(=O)N[C@@H](Cc1ccccc1)[C@H](CN(Cc1ccc(-c2ccccn2)cc1)NC(=O)[C@@H](NC(=O)OC)C(C)(C)C)OC(=O)[C@@H](N)CCSC)C(C)(C)C | > 20.8 | > 20.8 | > 1630 | > 1530 | 4.33 | 44 (≈ 52.6 µM) | – | 37 | 0.0346 | 0.053 | – | – | – | – | – | – | – | – | –
COC(=O)N[C@H](C(=O)N[C@@H](Cc1ccccc1)[C@H](CN(Cc1ccc(-c2ccccn2)cc1)NC(=O)[C@@H](NC(=O)OC)C(C)(C)C)OC(=O)[C@H](C)N)C(C)(C)C | > 20.8 | > 20.8 | > 1300 | > 1100 | – | – | – | 39 | 0.12 | 0.094 | 1.57 | 750 (≈ 967 µM) | 4 to 1140 | 0.9 to 1250 | – | – | – | – | –
CNCC(=O)O[C@@H](CN(Cc1ccc(-c2ccccn2)cc1)NC(=O)[C@@H](NC(=O)OC)C(C)(C)C)[C@H](Cc1ccccc1)NC(=O)[C@@H](NC(=O)OC)C(C)(C)C | > 20.8 | > 13.9 | > 2200 | > 2400 | – | – | – | 9 | 0.021 | 0.0296 | 1.04 | 930 (≈ 1200 µM) | – | – | – | – | – | – | –
COC(=O)N[C@H](C(=O)N[C@@H](Cc1ccccc1)[C@H](CN(Cc1ccc(-c2ccccn2)cc1)NC(=O)[C@@H](NC(=O)OC)C(C)(C)C)OC(=O)[C@@H](C)N)C(C)(C)C | > 20.8 | > 20.8 | > 1300 | > 1700 | – | – | – | 3 | 0.179 | 0.008 | 1.57 | 520 (≈ 670 µM) | 4 to 1140 | 0.9 to 1250 | – | – | – | – | –
COC(=O)N[C@H](C(=O)N[C@@H](Cc1ccccc1)[C@H](CN(Cc1ccc(-c2ccccn2)cc1)NC(=O)[C@@H](NC(=O)OC)C(C)(C)C)OC(=O)[C@@H](N)Cc1c[nH]c2ccccc12)C(C)(C)C | 15.7 | 15.7 | > 1040 | > 910 | 6.97 | 1 (≈ 1.12 µM) | – | 90 | 0.033 | 0.19 | – | – | – | – | – | – | – | – | –
Cc1cccc(C)c1OCC(=O)N[C@@H](Cc1ccccc1)[C@H](C[C@H](Cc1ccccc1)NC(=O)[C@H](C(C)C)N1CCCNC1=O)OP(=O)(O)O | – | – | – | – | – | – | – | – | – | – | – | – | – | – | – | – | – | Metabolite_Notdetected | Metabolite_Notdetected
COC(=O)N[C@H](C(=O)N[C@@H](Cc1ccccc1)[C@H](CN(Cc1ccc(-c2ccccn2)cc1)NC(=O)[C@@H](NC(=O)OC)C(C)(C)C)OC(=O)[C@H](NC(=O)[C@@H](N)C(C)C)C(C)C)C(C)(C)C | > 20.8 | > 20.8 | > 1710 | > 1420 | – | – | – | – | – | – | > 20.8 | 930 (≈ 1030 µM) | 4 to 1140 | 0.9 to 1250 | – | – | – | – | –
CC(C)CN(C[C@@H](OP(=O)(O)O)[C@H](Cc1ccccc1)NC(=O)O[C@H]1CCOC1)S(=O)(=O)c1ccc(N)cc1 [FOSAMPRENAVIR] | – | – | – | – | – | – | – | – | – | – | – | – | – | – | – | – | – | Metabolite_Notdetected | Metabolite_Notdetected
